Results as given in the kinase profiling compilation of Christmann-Franck et al. (2016).

Each compound was assayed against SGK1 (human) (UniProt O00141) (assay: Flashplate).
SGK1 (human), sequence (O00141 whole entry, looked up): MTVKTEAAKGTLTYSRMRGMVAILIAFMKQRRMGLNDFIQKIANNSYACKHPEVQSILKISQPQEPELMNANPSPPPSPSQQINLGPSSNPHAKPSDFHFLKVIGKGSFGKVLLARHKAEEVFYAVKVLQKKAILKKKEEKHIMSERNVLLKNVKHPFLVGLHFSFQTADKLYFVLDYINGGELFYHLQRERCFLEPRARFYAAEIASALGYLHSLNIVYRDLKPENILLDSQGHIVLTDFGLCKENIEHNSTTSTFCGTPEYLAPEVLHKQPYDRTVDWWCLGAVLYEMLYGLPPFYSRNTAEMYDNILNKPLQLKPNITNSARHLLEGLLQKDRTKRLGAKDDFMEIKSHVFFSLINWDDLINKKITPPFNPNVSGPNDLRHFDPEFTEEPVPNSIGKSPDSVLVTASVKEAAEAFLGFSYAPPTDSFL

Structure (SMILES) | Ki [µM]
COc1ccc(-c2ccc(NC(=O)Nc3cccc(Br)c3)cc2)c2c(N)noc12 | > 10
CC(C)=C(C)c1cccc2c(CCCOc3cccc(Cl)c3Cl)c(C(=O)O)[nH]c12 | > 10
N[C@H](COc1cncc(-c2ccc3c(c2)/C(=C/c2ccco2)C(=O)N3)c1)Cc1c[nH]c2ccccc12 | 0.0251
CC(C)NC(=O)COc1cccc(-c2nc(Nc3ccc4[nH]ncc4c3)c3ccccc3n2)c1 | > 10
O=C1NC(=O)C(c2cnc3ccccn23)=C1c1cn2c3c(cccc13)CN(C(=O)N1CCOCC1)CC2 | > 10
Cc1cc2nnc(SCc3cn4ccccc4n3)n2c2ccccc12 | > 10
COCCO[C@H]1CC[C@H](n2nc(-c3ccc(Nc4nc5cc(C)cc(C)c5o4)cc3)c3c(N)ncnc32)CC1 | > 10
O=C(Nc1cnccn1)Nc1ccnc2cc(C(F)(F)F)ccc12 | 1
Nc1nnc(-c2cc3c(Oc4ccc(Cl)cc4)cncc3s2)o1 | 1.58
CCc1cccc(NC(=O)Nc2ccc3c(c2)CCc2sc4ncnc(N)c4c2-3)c1 | > 10
CCN(CC)CCCNc1cccc(-c2nc3c(C(N)=O)cccc3[nH]2)n1 | > 10
CCOc1nc(C(=O)NCc2ccc(S(C)(=O)=O)cc2)cc(N)c1Cl | > 10
Cc1ccc(F)c(-c2ccc3nnc(N)n3c2)c1 | > 10
Nc1ccc(-c2csc3c(/C=C/c4nc5ccccc5[nH]4)cnc(N)c23)cc1 | 7.94
N#CC1=C(N)n2c(s/c(=C\c3ccco3)c2=O)=C(C(N)=O)C1c1ccco1 (stereo unspecified) | > 10
c1cc2cc(-c3ccc4cn[nH]c4c3)cnc2[nH]1 | 2
N#Cc1c(O)[nH]c(=O)c2c(=N)oc3ccc(Cl)cc3c12 | > 10
Nc1ncnc2scc(C(=O)Nc3ccc(NC(=O)Nc4ccccc4)cc3)c12 | > 10
C/C(=N/NC(=N)N)c1cc(NC(=O)NCCCN(C)CCCNC(=O)Nc2cc(/C(C)=N\NC(=N)N)cc(/C(C)=N/NC(=N)N)c2)cc(/C(C)=N/NC(=N)N)c1 | > 10
CCOc1nc(C(=O)NCc2ccccc2S(N)(=O)=O)cc(N)c1Cl | > 10
CC(C)(C)c1ccc2nc(-c3n[nH]c4ccccc34)[nH]c2c1 | 1.26
Cc1cccc(NC(=O)Nc2ccc(-c3csc4c(C#CCN(C)C)cnc(N)c34)cc2)c1 | 6.31

Structure (SMILES) | Ki [µM]
CCOc1ccccc1/C=N/NC(=O)c1nnn(-c2nonc2N)c1N1CCCC1 | > 10
FC(F)(F)c1ccc(Cn2cc(-c3ccc4[nH]ncc4c3)nn2)c(C(F)(F)F)c1 | > 10
NC(=O)c1cc2c(-c3cccc(F)c3)cncc2s1 | 3.16
Cc1n[nH]c2ccc(-c3cncc(OC[C@@H](N)Cc4ccc(Cl)c(Cl)c4)c3)cc12 | 0.0794
CCn1c(-c2nonc2N)nc2cnc(Oc3cccc(NC(=O)c4ccc(OCCN5CCOCC5)cc4)c3)cc21 | 0.2
O=C1Nc2ccccc2Nc2nnccc21 | > 10
CC(C)(C)NC(=O)c1ccc2nc3[nH]c4ccccc4c3nc2c1 | > 10
Cc1n[nH]c2c1C(c1ccccc1I)C(C#N)=C(N)O2 (stereo unspecified) | > 10
N[C@H](COc1cncc(-c2ccc3[nH]c(=O)oc3c2)c1)Cc1c[nH]c2ccccc12 | 5.01
COc1cc(N2CCC(N3CCN(C)CC3)CC2)ccc1Nc1ncc(Cl)c(Nc2ccccc2S(=O)(=O)C(C)C)n1 | > 10
COc1ccc(-c2ccc(NC(=O)Nc3ccc(F)c(C)c3)cc2)c2c(N)noc12 | > 10
Cc1cc(-c2ccccc2)n(-c2cc(N/N=C/c3ccco3)ncn2)n1 | > 10
COCCN(C)C(=O)c1c(-c2ccc3[nH]ncc3c2)nnn1Cc1ccccc1 | 1.58
OCCNc1cc2cc(-c3cccnc3)ccc2cn1 | 3.98
O=C(NCc1ccccc1)Nc1ncc([N+](=O)[O-])s1 | > 10
Nc1nc2ccc(-c3c(-c4ccc(F)cc4)nc4sccn34)cc2n1CC1CC1 | > 10
CCCCn1c(NC(=O)c2cccc(C#N)c2)nc2cc(N(C)C(=O)C3CCCCC3)ccc21 | > 10
COc1cccc([C@H](C)NC(=O)c2ccc(-c3ccncc3)cc2)c1 | > 10
O=C1NN=Cc2c[nH]c3cc(NC(=O)[C@@H]4C[C@H]4c4ccccc4)cc1c23 | 0.0398
O=C1CC(c2ccc(Cl)cc2Cl)Cc2[nH]c3cc(Cl)ccc3c(=O)c21 (stereo unspecified) | > 10
Cc1cccc(NC(=O)Nc2ccc(-c3cccc4[nH]ncc34)cc2)c1 | 2
CC(C)(C)c1n[nH]c2c1C(c1ccccc1F)C(C#N)=C(N)O2 (stereo unspecified) | > 10

Structure (SMILES) | Ki [µM]
CC(C)(CO)CNc1nccc(-c2c(-c3ccc(F)cc3)nc3c(OCC(F)(F)F)nccn23)n1 | > 10
COc1ccc(OC)c(Nc2ccc3nnc(-c4ccccc4)n3n2)c1 | > 10
Nc1ncc(-c2ccoc2)c2scc(-c3ccc(NC(=O)Nc4ccccc4F)cc3)c12 | > 10
O=C1NCc2c1cccc2-c1ccc(Nc2nc3ccccc3o2)cc1 | > 10
COc1cccc(Nc2ncnc3ccccc23)c1 | > 10
Nc1ncnc2scc(-c3ccc(NC(=O)Nc4ccccc4)cc3)c12 | 3.98
CCN(CC)C(=O)Nc1ccc2nc(-c3ccco3)c(-c3ccco3)nc2c1 | > 10
COc1cc(-c2ccc3c(c2)Nc2ccc([N+](=O)[O-])cc2NC3=O)ccc1O | > 10
NCCCOc1cc2c(c(-c3ccc(Nc4nc5ccccc5o4)cc3)c1)CNC2=O | 7.94
Cc1c(-c2cccc(OCc3ccccc3)c2)c2c(N)ncnc2n1[C@H]1CC[C@@H](N2CCCC2)CC1 | > 10
C[C@@H](Nc1c(Nc2ccncc2)c(=O)c1=O)C(C)(C)C | > 10
OC(COc1cncc(/C=C/c2ccncc2)c1)Cc1c[nH]c2ccccc12 (stereo unspecified) | > 10
Cc1cccc(NC(=O)Nc2ccc(-c3cnc4c(-c5cnn(C)c5)cnn4c3N)cc2)c1 | 6.31
N#Cc1ccc(-c2n[nH]c3c2Cc2ccc(OCCN4CCOCC4)cc2-3)cn1 | > 10
Nc1n[nH]c2ccc(-c3nnn(Cc4ccccc4)c3-c3ccc(F)cc3)cc12 | 2.51
O=C(NCC1CCCCC1)c1cc2c(-c3ccccc3)n[nH]c2s1 | 3.16
CNC(=O)N1CCN(CCCOc2ccc3c(c2)-c2[nH]nc(-c4ccc(C#N)nc4)c2C3)CC1 | > 10
FC(F)(F)Oc1ccc(-c2ccc3[nH]cc(C4=CCNCC4)c3c2)cc1 | > 10
CCCOn1c2ccc(Cl)cc2c(=O)c2c(C)nn(C)c21 | > 10
Cc1cc(C)cc(NC(=O)Nc2ccc(-c3c(C)sc4ncnc(N)c34)cc2)c1 | 7.94
Cc1cccc(NC(=O)Nc2ccc(-c3csc4c(C#CCN5CCCC5)cnc(N)c34)cc2)c1 | 5.01
O=C(Nc1ccc(-c2cccc3sncc23)cc1)Nc1ccc(F)c(C(F)(F)F)c1 | > 10

Structure (SMILES) | Ki [µM]
Oc1cccc(Nc2ncnc3scc(Cl)c23)c1 | > 10
Cc1cc(N2CCOCC2)cc2[nH]c(-c3c(NC[C@@H](O)c4cccc(Cl)c4)cc[nH]c3=O)nc12 | > 10
N#Cc1ncc2nc1OCC(O)C(O)COc1ccc(Cl)cc1NC(=O)N2 (stereo unspecified) | > 10
Cc1cccc(NC(=O)Nc2ccc(-c3cccc4c3CNC4=O)cc2C)c1 | > 10
Cc1c[nH]c2nccc(Oc3c(F)cc(Nc4cc(Cl)nc(N)n4)cc3F)c12 | 0.251
COc1ccc(-c2cc3nccn3c(Nc3ccccc3C(N)=O)n2)cc1OC | > 10
COc1ccc(C(=O)N2c3ccccc3Sc3c(Cl)cncc32)cc1 | 0.398
N[C@@H]1[C@H]2CN(c3nc4c(cc3F)c(=O)c(C(=O)O)cn4-c3ccc(F)cc3F)C[C@@H]12 | > 10
Cc1ccc(Nc2nc3ccc([N+](=O)[O-])cc3[nH]2)nc1 | 0.794
Cn1cc(-c2cnc(N)c3c(-c4ccc(NC(=O)Nc5ccc(OC(F)F)cc5)cc4)csc23)cn1 | > 10
N#Cc1ncc2nc1OCCCCCOc1cc(OCCCO)c(Cl)cc1NC(=O)N2 | > 10
COc1nccn2c(-c3ccnc(NCC(C)(C)CO)n3)c(-c3ccc(F)cc3F)nc12 | > 10
CNC(=O)C(C)n1cc(-c2cnc(N)c3c(-c4ccc(NC(=O)Nc5ccc(C)cc5)cc4)csc23)cn1 (stereo unspecified) | > 10
Cc1cc(O)ccc1-n1cc(C(=O)NN)c(=O)c2ccc(-c3ccncc3)cc21 | > 10
CC(=O)N[C@@H]1CCN(c2nc3[nH]cc(C(=O)O)c(=O)c3c(C)c2F)C1 | > 10
Clc1ccc(-c2n[nH]cc2-c2ccncn2)cc1Cl | > 10
NC[C@@H](O)[C@@H](O)Cn1cc(I)c2c(N)ncnc21 | 5.01
C[C@@H](NC(=O)c1ccc(-c2ccncc2)cc1)c1ccccc1 | 2
CCOc1nc(C(=O)NCc2ccc(S(N)(=O)=O)cc2)cc(N)c1C#N | > 10
Brc1cnc2[nH]cc(-c3ccccc3)c2c1 | 1.58
COc1cc(Nc2nccc(Nc3cc(C4CCCCC4)no3)n2)cc(OC)c1OC | > 10
COc1cc(-c2ccc3c(c2)Nc2ccc(C(=O)NCc4cccc(F)c4)cc2NC3=O)ccc1O | > 10

Structure (SMILES) | Ki [µM]
C[C@@H](N)C1CCC(C(=O)Nc2ccnc3[nH]ccc23)CC1 (stereo partly specified) | > 10
C[C@H](Nc1nccc(-c2c(-c3ccc(F)cc3)nc3occn23)n1)c1ccccc1 | > 10
CN1CCC(C(=O)n2nc(N)c3cc(-c4cn(Cc5ccccc5)nn4)ccc32)CC1 | 7.94
Cc1ccc(NC(=O)Nc2ccc(-c3csc4ncnc(N)c34)cc2)cc1C | > 10
CN(C)c1cc2sncc2cc1NC(=O)C(=O)O | > 10
Nc1ncnc(Nc2cc(CNC(=O)C(F)(F)F)c(O)c(-c3ccc(Cl)cc3)c2)n1 | > 10
COc1cc(C(=O)O)c(Cl)cc1NC(=O)Nc1cnc(C#N)cn1 | > 10
O=S(=O)(NCCNC/C=C/c1ccc(Br)cc1)c1cccc2cnccc12 | 1
COc1cccc(C(=O)Nc2cnc3[nH]cc(-c4ccccc4)c3c2)c1 | 2
O=c1[nH]c2sc3c(c2c2nc(-c4ccncc4)nn12)CCCC3 | > 10
CCn1c(C)c(-c2ccnc(Nc3cccc(OC)c3)n2)sc1=O | 0.316
O=C(Nc1cccc(Cl)c1)Nc1ncc(CCNc2ncnc3ccsc23)s1 | > 10
C(=C\c1cncc(O[C@@H]2CCNC2)c1)/c1ccncc1 | > 10
c1ccc(CSc2nc(-c3ccncc3)n[nH]2)cc1 | 7.94
Cc1c(O)cccc1NC(=O)c1cnn2c(-c3ccccc3)ccnc12 | > 10
COc1cc(/C=C(\C#N)c2n[nH]c(N)c2C#N)ccc1O | > 10
Cc1cccc(NC(=O)Nc2ccc(-c3csc4c(C#CCCCCCCCCN)cnc(N)c34)cc2)c1 | 2
Cc1cccc(NC(=O)Nc2ccc(-c3cccc4c3CNC4=O)cc2)c1 | > 10
